The structures appear in SMILES notation.

For the experiment, the system named is A. baumannii ATCC 17978. Briefly: Antimicrobial susceptibility testing: 50% growth inhibitory concentration (IC50) determination in Iso-Sensitest broth. In kind it is cell-based. The settings on record: Acinetobacter baumannii; A. baumannii strain ATCC17978; Iso-Sensitest medium; OD 600 nm over 16 h; 35±2° C.; read-out: IC50 ATCC17978 (50% growth inhibition concentration). As to the method: Antimicrobial Susceptibility Testing: 50% Growth Inhibitory Concentration (IC50) Determination The in vitro antimicrobial activity of the compounds was alternatively determined according to the following procedure: The assay used a 10-points Iso-Sensitest broth medium to measure quantitatively the in vitro activity of the compounds against A. baumannii ATCC 17978. Stock compounds in DMSO were serially twofold diluted (e.g. range from 10 to 0.02 μM final concentration) in 384 wells microtiter plates and inoculated with 49 μl the bacterial suspension in Iso-Sensitest medium to have a final cell concentration of ˜5×10^(5) CFU/ml in a final volume/well of […] Microtiter plates were incubated at 35±2° C. Bacterial cell growth was determined by the measurement of optical density at λ=600 nm each 20 minutes over a time course of 16 h. Growth inhibition was calculated during the logarithmic growth of the bacterial cells by determination of the concentration inhibiting 50% (IC50) and 90% (IC90) of the growth. Table 1 provides the 50% growth inhibitory concentrations (IC50) in micromoles per liter of the compounds of present invention obtained against the A. baumannnii strain ATCC17978.
Turning to `CC(=O)NS(=O)(=O)c1ccc(-c2ccc(Cl)c3c2CNC(=O)[C@H](Cc2c[nH]c4ccccc24)N(C)C(=O)[C@H](CCCCNCC(F)F)NC(=O)[C@H](CCCO)NCc2cccnc2S3)cc1` [Example 17.00, N-[4-[(11S,14S,7S)-25-Chloro-14-[4-(2,2-difluoroethylamino)butyl]-11-(3-hydroxypropyl)-17-(1H-indol-3-ylmethyl)-16-methyl-12,15,18-trioxo-2-thia-4,10,13,16,19-pentazatricyclo[19.4.0.03,8]pentacosa-1(21),3,5,7,22,24-hexaen-22-yl]phenyl]sulfonylacetamide], the IC50 stood at 5220 nM.

On to `CNCCCC[C@@H]1NC(=O)[C@H](CCCO)NCc2cccnc2Sc2c(Cl)ccc(-c3ccc(S(=O)(=O)NC(C)=O)cc3)c2CNC(=O)[C@H](Cc2c[nH]c3ccccc23)N(C)C1=O` [Example 18.00, N-[4-[(11S,14S,17S)-25-Chloro-11-(3-hydroxypropyl)-17-(1H-indol-3-ylmethyl)-16-methyl-14-[4-(methylamino)butyl]-12,15,18-trioxo-2-thia-4,10,13,16,19-pentazatricyclo[19.4.0.03,8]pentacosa-1(21),3,5,7,22,24-hexaen-22-yl]phenyl]sulfonylacetamide], for which the IC50 is 630 nM.

Consider `CN1C(=O)[C@H](CCCCNCC(F)F)NC(=O)[C@H](CCCN)NCc2cccnc2Sc2c(Cl)ccc(-c3cnc(O)nc3)c2CNC(=O)[C@@H]1Cc1c[nH]c2ccccc12` [Example 19.00, (11S,14S,17S)-11-(3-Aminopropyl)-25-chloro-14-[4-(2,2-difluoroethylamino)butyl]-22-(2-hydroxypyrimidin-5-yl)-17-(1H-indol-3-ylmethyl)-16-methyl-2-thia-4,10,13,16,19-pentazatricyclo[19.4.0.03,8]pentacosa-1(21),3,5,7,22,24-hexaene-12,15,18-trione], for which the IC50 amounted to 300 nM.

Turning to `CC(=O)NS(=O)(=O)c1ccc(-c2ccc(Cl)c3c2CNC(=O)[C@H](Cc2c[nH]c4ccccc24)N(C)C(=O)[C@H](CCCCN)NC(=O)[C@H](CCCNCCC(=O)O)NCc2cccnc2S3)cc1` [Example 20.00, 3-[3-[(11S,14S,17S)-22-[4-(Acetylsulfamoyl)phenyl]-14-(4-aminobutyl)-25-chloro-17-(H-indol-3-ylmethyl)-16-methyl-12,15,18-trioxo-2-thia-4,10,13,16,19-pentazatricyclo[19.4.0.03,8]pentacosa-1(21),3,5,7,22,24-hexaen-11-yl]propylamino]propanoic acid], the IC50 was found to be 520 nM.

`CN1C(=O)[C@H](CCCCN)NC(=O)[C@H](CCCN)NCc2cccnc2Sc2c(Cl)cc(-c3nnn[nH]3)cc2CNC(=O)[C@@H]1Cc1c[nH]c2ccccc12` [Example 21.00, (11S,14S,17S)-14-(4-Aminobutyl)-11-(3-aminopropyl)-25-chloro-17-(1H-indol-3-ylmethyl)-16-methyl-23-(1H-tetrazol-5-yl)-2-thia-4,10,13,16,19-pentazatricyclo[19.4.0.03,8]pentacosa-1(21),3,5,7,22,24-hexaene-12,15,18-trione]: the IC50 is 10000 nM.

For `CN1C(=O)[C@H](CCCCN)NC(=O)[C@H](CCCN)NCc2cccnc2Sc2c(Cl)cc(-c3cn[nH]n3)cc2CNC(=O)[C@@H]1Cc1c[nH]c2ccccc12` [Example 22.00, (11S,14S,17S)-14-(4-Aminobutyl)-1-(3-aminopropyl)-25-chloro-17-(1H-indol-3-ylmethyl)-16-methyl-23-(1H-triazol-5-yl)-2-thia-4,10,13,16,19-pentazatricyclo[19.4.0.03,8]pentacosa-1(21),3,5,7,22,24-hexaene-12,15,18-trione], the IC50 came out at 180 nM.
